The target in data set [1] is anthrax lethal factor (LF) (Bacillus anthracis, UniProt P15917). The format is biochemical.
A further data set in a line: in vivo. The settings on record: NZW, rabbit, sc, 10 mg/kg.
In data set [2] the test system is anthrax lethal toxin (LT; PA + LF). Set-up: species or system Fischer 344 rats. The settings on record: rat, in vivo.
The conditions of data set [3]: t = 30 min.

Where “and” joins values, the source holds several entries; their conditions need not be identical. Equal entries are not always repeated. Bounds are passed on as bounds.

A word on the Cmax: it is the maximum level reached in the sampled fluid or tissue.

Chain of anthrax lethal factor (LF) (P15917 34-809 limits assumed): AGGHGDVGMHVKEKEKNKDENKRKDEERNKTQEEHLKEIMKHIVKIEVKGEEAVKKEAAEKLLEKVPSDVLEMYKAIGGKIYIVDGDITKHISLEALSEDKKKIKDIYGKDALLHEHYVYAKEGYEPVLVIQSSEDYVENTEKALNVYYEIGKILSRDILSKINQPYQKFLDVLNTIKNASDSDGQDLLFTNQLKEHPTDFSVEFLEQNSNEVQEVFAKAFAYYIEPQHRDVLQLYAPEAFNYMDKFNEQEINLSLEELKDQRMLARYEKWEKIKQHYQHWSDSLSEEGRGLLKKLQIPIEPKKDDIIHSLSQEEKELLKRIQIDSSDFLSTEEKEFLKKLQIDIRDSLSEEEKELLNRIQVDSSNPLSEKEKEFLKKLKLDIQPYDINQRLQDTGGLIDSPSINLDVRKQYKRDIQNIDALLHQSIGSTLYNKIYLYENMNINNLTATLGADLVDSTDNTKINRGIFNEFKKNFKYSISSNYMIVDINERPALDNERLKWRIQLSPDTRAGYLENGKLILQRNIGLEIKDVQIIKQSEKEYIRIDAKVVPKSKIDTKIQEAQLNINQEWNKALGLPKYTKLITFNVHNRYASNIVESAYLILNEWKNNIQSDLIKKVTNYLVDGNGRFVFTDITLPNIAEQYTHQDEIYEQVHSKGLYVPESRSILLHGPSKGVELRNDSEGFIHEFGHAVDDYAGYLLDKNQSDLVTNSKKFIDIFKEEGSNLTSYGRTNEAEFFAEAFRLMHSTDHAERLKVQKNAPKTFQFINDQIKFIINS

With `CC[C@@H](NCCCC[C@@H](Cc1cc(C)c(F)c(C)c1)C(=O)NO)c1ccc(F)cc1` [LFI 11], in data set [1], the “difference in potency against LF between analogs” value stood at 50 fold.
`CCC(NCCCC[C@@H](C[C@@H](OC)c1ccc(F)cc1)C(=O)NO)c1ccc(F)cc1` (stereo partly shown) [LFI 20] returned a Cmax in the data set “in vivo” of 561 ng/mL.
`CO[C@H](C[C@H](CCCCNCc1ccc(F)cc1)C(=O)NO)c1ccc(F)cc1` [LFI 4]: the “surv (number of survivors per group)” value in data set [2] is given as “one animal was lost”.
Turning to `Cc1cc(O[C@H](CCCCNCc2ccc(F)cc2)C(=O)NO)cc(C)c1F` [LFI 3], in data set [2], the “rMST = MST(LFI)/MST(controls)” value is 16.0 and the “surv (number of survivors per group)” value is on record as 0/3.
On to `Cc1cc(C[C@H](CCCCN[C@H](Cc2ccccc2)c2ccc(F)cc2)C(=O)NO)cc(C)c1F` [LFI 15], for which the “LF (FRET) KinM)” value in data set [1] was “sub-nanomolar”.
Regarding `CCC(NCCCC[C@@H](Oc1cc(C)c(F)c(C)c1)C(=O)NO)c1ccc(F)cc1` (stereo partly shown) [LFI 19], the “surv (number of survivors per group)” value in data set [2] is on record as 1/3. Moreover, the “M = microsome stability, percent of compound remaining” value in data set [3] is reported as under 10%.
For `Cc1cc(C[C@H](CCCCNCc2ccc(F)cc2)C(=O)NO)cc(C)c1F` [LFI 2], in data set [2], the “rMST = MST(LFI)/MST(controls)” value was 19.3; the “surv (number of survivors per group)” value is 1/3 and 3/3.
Take `CCC(NCCCC[C@@H](Cc1cc(C)c(F)c(C)c1)C(=O)NO)c1ccc(F)cc1` (stereo partly shown) [LFI 18]: in data set [2], the “surv (number of survivors per group)” value was “protect all of the animals and 3/3 and 5/6”.
For `Cc1cc(N[C@H](CCCCNCc2ccc(F)cc2)C(=O)NO)cc(C)c1F` [LFI 1], in data set [2], the “rMST = MST(LFI)/MST(controls)” value was 16.8; the “surv (number of survivors per group)” value was 3/5 and 3/3.

For the origin of these results see PMC3295836 (Bioorganic & medicinal chemistry letters, 2012).
